From US20220226357A1, “METHODS FOR TREATING NEURODEGENERATIVE DISORDERS” (THOMAS JEFFERSON UNIVERSITY, priority 2019, published 2022)
Entries after “also recorded” stand apart in the source; their conditions may differ. Marks after values point to notes of the source that are not given here.

Legend:
[1] = tested on: AAV-A53T α-synuclein rat model; experiment: Striatal dopamine and metabolite levels (UHPLC, electrochemical detection); type: in vivo; conditions: for DA / DOPAC: striatum
Description: (§1) Institutional Animal Care and Use Committee and conducted in accordance with the National Institutes of Health Guide for the Care and Use of Laboratory Animals. Adult male Sprague-Dawley rats (Envigo), 250 to 300 g at the time of surgery, were housed three per cage with ad libitum access to food and water during a 12-hour light/dark cycle. All surgeries were performed under general anesthesia using a mixture of ketamine (100 mg/kg, i.p.) and xylazine (10 mg/kg, i.p.). Once animals were anesthetized, the head was shaved and surgically prepped with Betadine solution and alcohol before being placed in a Kopf stereotaxic frame with the incisor bar set at approximately 3.5 mm below horizontal zero to achieve a flat skull position. The skin on the top of the skull was cut along the midline and retracted. […] Following a 5 minute wait period after completion of the injection, the needle was slowly withdrawn, the skin wound was closed, and post-surgery analgesia (meloxicam 1 mg/kg) was administered. Some rats were randomly assigned to receive daily GM1 ganglioside (porcine brain derived GM1, 30 mg/kg, i.p., Qilu Pharmaceutical Co., Ltd.) or similar volume saline injections beginning 24 hours after AAV-A53T-synuclein surgery and lasting for 6 weeks (early start group). Other animals were randomly assigned to receive daily GM1 ganglioside (porcine brain derived GM1, 30 mg/kg, i.p., Qilu Pharmaceutical Co.) or similar volume saline injections beginning 3 weeks after AAV-A53T-synuclein surgery and lasting for 5 weeks (delayed start group). […] At the conclusion of the study, animals were euthanized, fresh brains were rapidly removed, and two to three striatal samples from both sides were dissected and immediately frozen for later analyses. The remainder of the brain (including the striatum beginning at the level of the decussation of the anterior commissure) was submersion fixed in 4% paraformaldehyde.
Striatal samples were sonicated cold in 0.4 M perchloric acid for 10 seconds and centrifuged at 13,000 rpm for 10 min at 4° C. The supernatant was removed and was diluted 1:4 with Milli-Q ultrapure water (resistivity 18.2 MΩ·cm) containing internal standard (isoproterenol, 4 ng). The diluted samples were centrifuged again at 13,000 rpm for 5 min at 4° C. Samples were kept on ice prior to loading into the refrigerated (4° C.) autosampler integrated with the HPLC system. An ALEXYS UHPLC system (Antec Scientific) with electrochemical detection (Decade Elite electrochemical detector with a glassy carbon electrode) was used for the analyses. […] The mobile phase (pH 3.0) consisted of 100 mM phosphoric acid, 100 mM citric acid, 0.1 mM EDTA.Na2, 600 mg/L octanesulfonic acid sodium salt, and 8% acetonitrile. Pump flow rate was 50 μl/min. The analytes were detected at an oxidation potential of 600 mV against a reference electrode at 0 mV. Data were acquired and processed using Clarity software (v7.4.1) (DataApex). Peak heights were compared against internal standard curves to determine the concentrations of DA and metabolites in each sample.

[2] = tested on: AAV-A53T α-synuclein rat model; experiment: Stereological counting of TH+ and Nissl (cresyl violet) stained neurons in the SNc; type: in vivo
Description: as §1
Fixed tissue blocks were immersed in 30% sucrose for cryoprotection and sectioned frozen on a sliding microtome (30 μm section thickness for striatal sections; 40 μm section thickness for SN sections). Sections through the rostro-caudal extent of the SN were collected and every sixth section from the SN was processed for tyrosine hydroxylase (TH) immunohistochemistry to be used for stereological cell counting. Three striatal sections from approximately the level of the decussation of the anterior commissure in each case were processed for α-synuclein immunohistochemistry. For immunohistochemistry, sections were washed and permeabilized with PBS containing 0.2% Triton X-100. Endogenous peroxidase activity was quenched using 3% hydrogen peroxide in PBS containing 0.2% Triton X-100. Sections were then blocked in PBS/triton X-100 containing 10% normal goat serum and 2% BSA, followed by primary antibody incubation (TH (rabbit anti-TH, 1:2,000, Pel-Freez); α-synuclein (mouse anti-α-synuclein clone 211; 1:2000, Millipore) overnight at 4° C. The following day, sections were washed in PBS and incubated in biotinylated secondary antibody (goat-anti-rabbit 1:4000 for TH; goat-anti-mouse 1:2000 for α-synuclein 1:2000, VECTOR Laboratories), followed by additional washes and incubation in avidin biotin complex (VECTASTAIN Elite ABC system, VECTOR Laboratories). The reaction product was visualized with 3,3′-diaminobenzidine (DAB) (Immpact DAB, VECTOR Laboratories). Sections were then mounted, dehydrated, cleared and coverslipped. Sections stained for visualization of TH and to be used for stereological cell counting were counterstained with cresyl violet prior to coverslipping. Stereological estimates of the numbers of TH and cresyl violet-stained neurons in the SNc on both sides of the brain were obtained using StereoInvestigator software (MBF Bioscience) and an Olympus BX-60 microscope equipped with a Ludl motorized stage. Slides were coded and analyzed blindly. […]

[3] = tested on: AAV-A53T α-synuclein rat model; experiment: Immunohistochemistry of Ser129-phosphorylated α-synuclein in the SN; type: in vivo; conditions: delayed start GM1; 8 weeks after AAV-A53T; not quantified
[4] = tested on: differentiated SH-SY5Y cells; experiment: Uptake of GFP-α-Syn from conditioned medium; type: cell-based; conditions: 100 μM GM1, 24 hrs, conditioned medium of MN9D cells expressing GFP-tagged human WT α-Syn
Description: It has recently become appreciated that cell-to-cell transfer of α-Syn may be an important factor in the progression of synucelinopathies. Cell-to-cell transfer of α-Syn can occur as free α-Syn or as α-Sy-containing exosomes. Herein, a preliminary study was conducted to assess the extent to which GM1 can influence α-Syn release and/or uptake by neighboring cells. MIN9D dopaminergic cells stably expressing human WT α-Syn tagged with GFP were cultured to ˜90% confluency and shifted to serum free media for 48 hours to generate conditioned medium (CM), which was collected, spun at 1000 rpm for 10 minutes and filtered through a sterile […] filter. Normal SH-SY5Y cells (ATCC) were plated in 8 well chamber slides and differentiated in 10 μM retinoic acid for 7 days. Sterile CM or regular medium were used to replace 50% of the medium in each well. The cells were grown in the CM for 24 hours in presence or absence of 100 μM GM1, fixed in 4% paraformaldehyde for 10 minutes, and processed for enhanced visualization of GFP using GFP immunofluorescence.

[5] = delayed start GM1, 8 weeks after AAV-A53T
[6] = early start GM1, 6 weeks after AAV-A53T
[7] = AAV-A53T/Delayed GM1, injected side
[8] = AAV-A53T/Delayed GM1, non-injected side
[9] = AAV-A53T/Early GM1, injected side
[10] = AAV-A53T/Early GM1, non-injected side

GM1 ganglioside
DOPAC levels on the injected side, % of non-injected side [1, 5]: 82.0±8.4% | DOPAC/DA ratio on the injected side, % of contralateral side [1, 5]: 150.0±10.9% | striatal DA levels on the injected side, % of contralateral side [1, 5]: 55.0±3.9% | DOPAC/DA ratio on the injected side, % of contralateral side [1, 6]: 112.3±9.5% | striatal DA levels on the injected side, % of contralateral side [1, 6]: 64.0±3.5% | DA [1, 7]: 5.87 ± 0.47^b μg/g wet tissue | DOPAC ([1]; AAV-A53T/Delayed GM1, injected side, two outlier samples removed): 0.93 ± 0.12^ μg/g wet tissue | DA [1, 8]: 10.73 ± 0.54 μg/g wet tissue | DOPAC ([1]; AAV-A53T/Delayed GM1, non-injected side, two outlier samples removed): 1.18 ± 0.10^ μg/g wet tissue | DA [1, 9]: 7.29 ± 0.45^a μg/g wet tissue | DOPAC [1, 9]: 0.85 ± 0.09 μg/g wet tissue | DA [1, 10]: 11.43 ± 0.32 μg/g wet tissue | DOPAC [1, 10]: 1.33 ± 0.10 μg/g wet tissue | Nissl+ Cells [2, 7]: 3335 ± 148^d | TH+ Cells [2, 7]: 2814 ± 134^c | Nissl+ Cells [2, 8]: 6113 ± 132 | TH+ Cells [2, 8]: 5685 ± 143 | Nissl+ Cells [2, 9]: 3557 ± 172^b | TH+ Cells [2, 9]: 3144 ± 159^a | Nissl+ Cells [2, 10]: 6074 ± 174 | TH+ Cells [2, 10]: 5601 ± 135 | loss of TH+ neurons compared to the contralateral side ([2]; delayed start GM1, 8 weeks): 50.6±2.1% | loss of cresyl violet-stained neurons compared to the contralateral side ([2]; delayed start GM1, 8 weeks): 45.5±2.1% | loss of TH+ neurons compared to the non-injected side ([2]; early start GM1, 6 weeks): 43.7±2.7% | loss of cresyl violet-stained neurons compared to the contralateral side ([2]; early start GM1, 6 weeks): 41.9±2.5% | Ser129-phosphorylated α-synuclein staining in the SN, GM1 vs saline [3]: less intense cytoplasmic Ser129-phosphorylated α-synuclein staining and fewer/smaller nuclear aggregates; also recorded: more Ser129 phosphorylated α-synuclein staining in saline-treated animals compared to GM1-treated animals | uptake of GFP-α-Syn into SH-SY5Y cells [4]: reduced levels of GFP-α-Syn; also recorded: reduced uptake of GFP-α-Syn
